The source of these data is patent publication US10654884B2 (Vitae Pharmaceuticals, Inc., priority 2014, dated 2020).

The IC50 is the concentration that gives 50% inhibition.

In one experiment the target is T1, human CD73 (Homo sapiens, UniProt P21589).
T1 construct: purchased R&D Systems 5795-EN-010
T1 sequence (P21589 27-549): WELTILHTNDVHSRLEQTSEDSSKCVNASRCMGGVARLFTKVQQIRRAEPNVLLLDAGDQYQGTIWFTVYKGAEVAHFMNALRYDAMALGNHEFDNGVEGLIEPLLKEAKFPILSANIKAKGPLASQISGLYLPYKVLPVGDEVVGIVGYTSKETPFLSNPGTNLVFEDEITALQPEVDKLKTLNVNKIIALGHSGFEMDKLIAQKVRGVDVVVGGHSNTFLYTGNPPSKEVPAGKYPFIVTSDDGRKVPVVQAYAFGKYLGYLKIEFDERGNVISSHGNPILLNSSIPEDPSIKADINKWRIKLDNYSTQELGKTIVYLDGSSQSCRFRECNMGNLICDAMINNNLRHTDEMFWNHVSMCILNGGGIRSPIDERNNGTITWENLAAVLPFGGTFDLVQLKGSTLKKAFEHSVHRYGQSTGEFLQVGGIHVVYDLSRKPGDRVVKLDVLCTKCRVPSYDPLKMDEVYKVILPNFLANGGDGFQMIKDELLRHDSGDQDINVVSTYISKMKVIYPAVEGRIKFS
The experiment can be described thus: Inhibition of 5′-Nucleotidase Activity of CD73 (Assay 1). The conditions noted are these: human CD73 4 ng/ml, 50 μM CMP, 20 min at RT, malachite green readout; read-out: Assay 1: IC50, inhibition of 5′-nucleotidase activity of CD73. Format: biochemical. In short, it runs like this:
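Human CD73 (4 ng/ml final) was incubated with 50 μM CMP in 25 mM Tris-HCl pH 7.4, 0.005% Brij-35 for 20 min at RT. Reactions were stopped with malachite green reagent and absorbance was read at 620 nm. IC50 came from a 4-parameter logistic fit.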

Experiment [1] concerns the target T2, CD73 on U138 neuroglioma cells (Homo sapiens, UniProt P21589).
T2 construct: U138 neuroglioma cells, which express CD73 on their surface; endogenous in cells; host or cells: U138 neuroglioma cells (ATCC)
T2 sequence (P21589 27-549): T1 sequence (P21589 27-549)
The experiment can be described thus: Inhibition of Ecto-5′-Nucleotidase Activity in U138 Neuroglioma Cells (Assay 2). The format is cell-based. The conditions noted are these: 50 μM CMP, 2 hr at 37° C., malachite green readout, read-out: Assay 2: IC50, inhibition of ecto-5′-nucleotidase activity in U138 neuroglioma cells. A digest of the protocol:
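Whole-cell CD73 activity in U138 human neuroglioma cells seeded the day before, washed free of phosphate, then given test compound dilutions with 50 μM CMP in HEPES-buffered saline, pH 7.4, DMSO ≤0.1%. Incubated 2 hr at 37° C; released inorganic phosphate in supernatant measured by malachite green; IC50 by nonlinear regression.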

Some results are limits rather than exact numbers.

In the case of `CCOC(=O)C(OC[C@H]1C[C@@H](n2nnc3c(N)nc(Cl)nc32)[C@H](O)[C@@H]1O)P(=O)(O)O` (single isomer, unassigned) [Example 77], the figures for the IC50 (at human CD73; in experiment [1]) were less than 100 nM and 100 to 1000 nM, respectively.
In the same order, the values of `CCOC(=O)C(OC[C@H]1C[C@@H](n2nnc3c(N)nc(Br)nc32)[C@H](O)[C@@H]1O)P(=O)(O)O` (single isomer, unassigned) [Example 77a] are less than 100 nM and 100 to 1000 nM.
For `CC(C)(C)OC(=O)C(OC[C@H]1C[C@@H](n2cnc3c(N)nc(Cl)nc32)[C@H](O)[C@@H]1O)P(=O)(O)O` (single isomer, unassigned) [Example 78], the IC50 at human CD73 was less than 100 nM; in experiment [1], 100 to 1000 nM.
Turning to `CC(C)(C)OC(=O)C(OC[C@H]1C[C@@H](n2cnc3c(N)nc(Cl)nc32)[C@H](O)[C@@H]1O)P(=O)(O)O` (single isomer, unassigned) [Example 78a], the IC50 was 100 to 1000 nM at human CD73 and greater than 1000 nM in experiment [1].
The matching figures for `CCOC(=O)[C@](CC(=O)O)(OC[C@H]1O[C@@H](n2cnc3c(N)nc(F)nc32)[C@H](O)[C@@H]1O)P(=O)(O)O` (single isomer, unassigned) [Example 79]: 100 to 1000 nM and greater than 1000 nM.
In the case of `CCN(CC)C(=O)[C@@H](OC[C@H]1O[C@@H](n2cnc3c(N)nc(Cl)nc32)[C@H](O)[C@@H]1O)P(=O)(O)O` (single isomer, unassigned) [Example 82], the IC50 at human CD73 was less than 100 nM; in experiment [1], 100 to 1000 nM.
In the same order, the values of `CCN(CC)C(=O)[C@H](OC[C@H]1O[C@@H](n2cnc3c(N)nc(Cl)nc32)[C@H](O)[C@@H]1O)P(=O)(O)O` (single isomer, unassigned) [Example 82a] are less than 100 nM and 100 to 1000 nM.
Take `CCOC(=O)C(OC[C@H]1O[C@@H](n2cnc3ccc(Cl)nc32)[C@H](O)[C@@H]1O)P(=O)(O)O` (single isomer, unassigned) [Example 87]: the results for the IC50 (at human CD73; in experiment [1]) were less than 100 nM and 100 to 1000 nM, respectively.
Take `CNc1nc(Cl)nc2c1ncn2[C@@H]1O[C@H](COC(C(F)(F)F)P(=O)(O)O)[C@@H](O)[C@H]1O` (single isomer, unassigned) [Example 100]: the IC50 on human CD73 was 100 to 1000 nM; in experiment [1], less than 100 nM.
In the case of `CNc1nc(Cl)nc2c1ncn2[C@@H]1O[C@H](COC(C(F)(F)F)P(=O)(O)O)[C@@H](O)[C@H]1O` (single isomer, unassigned) [Example 100a], the IC50 (on human CD73; in experiment [1]) was less than 100 nM each time.
For the compound `CNc1nc(Cl)nc2c1ncn2[C@@H]1O[C@H](COC(C)(C(=O)O)C(=O)O)[C@@H](O)[C@H]1O` [Example 2, (2-(((2R,3S,4R,5R)-5-(2-chloro-6-(methylamino)-9H-purin-9-yl)-3,4-dihydroxytetrahydrofuran-2-yl)methoxy)-2-methylmalonic Acid)], the IC50 (on human CD73; in experiment [1]) was 100 to 1000 nM throughout.
As for `Nc1nc(Cl)nc2c1ncn2[C@@H]1O[C@H](COC(C(=O)O)C(=O)O)[C@@H](O)[C@H]1O` [Example 3, 2-(((2R,3S,4R,5R)-5-(6-amino-2-chloro-9H-purin-9-yl)-3,4-dihydroxytetrahydrofuran-2-yl)methoxy)malonic acid], the IC50 at human CD73 is less than 100 nM; in experiment [1] it was 100 to 1000 nM.
Take `Nc1nc(Cl)nc2c1ncn2[C@@H]1O[C@H](COC(Cc2ccc(F)cc2)(C(=O)O)C(=O)O)[C@@H](O)[C@H]1O` [Example 4, 2-(((2R,3S,4R,5R)-5-(6-amino-2-chloro-9H-purin-9-yl)-3,4-dihydroxytetrahydrofuran-2-yl)methoxy)-2-(4-fluorobenzyl)malonic acid]: the IC50 (at human CD73; in experiment [1]) was less than 100 nM each time.
`COCC(OC[C@H]1O[C@@H](n2cnc3c(N)nc(Cl)nc32)[C@H](O)[C@@H]1O)(C(=O)O)C(=O)O` [Example 5, 2-(((2R,3S,4R,5R)-5-(6-amino-2-chloro-9H-purin-9-yl)-3,4-dihydroxytetrahydrofuran-2-yl)methoxy)-2-(methoxymethyl)malonic acid]: the IC50 (on human CD73; in experiment [1]) was less than 100 nM each time.
In the case of `Nc1nc(Cl)nc2c1ncn2[C@@H]1O[C@H](COC(COCc2ccccc2)(C(=O)O)C(=O)O)[C@@H](O)[C@H]1O` [Example 6, 2-(((2R,3S,4R,5R)-5-(6-amino-2-chloro-9H-purin-9-yl)-3,4-dihydroxytetrahydrofuran-2-yl)methoxy)-2-((benzyloxy)methyl)malonic acid], the IC50 (on human CD73; in experiment [1]) was less than 100 nM throughout.
Turning to `Nc1nc(Cl)nc2c1ncn2[C@@H]1O[C@H](COC(Cc2ccccc2)(C(=O)O)C(=O)O)[C@@H](O)[C@H]1O` [Example 7, 2-(((2R,3S,4R,5R)-5-(6-amino-2-chloro-9H-purin-9-yl)-3,4-dihydroxytetrahydrofuran-2-yl)methoxy)-2-benzylmalonic acid], the IC50 (at human CD73; in experiment [1]) was less than 100 nM each time.
For the compound `Nc1nc(Cl)nc2c1ncn2[C@@H]1O[C@H](CO[C@H](C(=O)OCc2ccccc2)P(=O)(O)O)[C@@H](O)[C@H]1O` [Example 16a, ((S)-1-(((2R,3S,4R,5R)-5-(6-amino-2-chloro-9H-purin-9-yl)-3,4-dihydroxytetrahydrofuran-2-yl)methoxy)-2-(benzyloxy)-2-oxoethyl)phosphonic Acid], the figures for the IC50 (at human CD73; in experiment [1]) were 100 to 1000 nM and greater than 1000 nM, respectively.
The matching figures for `CC(=O)NNC(=O)C(OC[C@H]1O[C@@H](n2cnc3c(N)nc(Cl)nc32)[C@H](O)[C@@H]1O)P(=O)(O)O` (stereo partly drawn) [Example 20, (2-(2-acetylhydrazinyl)-1-(((2R,3S,4R,5R)-5-(6-amino-2-chloro-9H-purin-9-yl)-3,4-dihydroxytetrahydrofuran-2-yl)methoxy)-2-oxoethyl)phosphonic Acid]: less than 100 nM and 100 to 1000 nM.
For `CCNc1nc(Cl)nc2c1ncn2[C@@H]1O[C@H](CO[C@@](C)(C(=O)OCC)P(=O)(O)O)[C@@H](O)[C@H]1O` [Example 29, ((R)-2-(((2R,3S,4R,5R)-5-(2-chloro-6-(ethylamino)-9H-purin-9-yl)-3,4-dihydroxytetrahydrofuran-2-yl)methoxy)-1-ethoxy-1-oxopropan-2-yl)phosphonic Acid], the IC50 (on human CD73; in experiment [1]) was less than 100 nM each time.
For the compound `CCNc1nc(Cl)nc2c1ncn2[C@@H]1O[C@H](CO[C@](C)(C(=O)OCC)P(=O)(O)O)[C@@H](O)[C@H]1O` [Example 29a, ((S)-2-(((2R,3S,4R,5R)-5-(2-chloro-6-(ethylamino)-9H-purin-9-yl)-3,4-dihydroxytetrahydrofuran-2-yl)methoxy)-1-ethoxy-1-oxopropan-2-yl)phosphonic Acid], the IC50 (on human CD73; in experiment [1]) was 100 to 1000 nM in each case.
For the compound `COc1nc(OC)c2ncn([C@@H]3O[C@H](COC(C(=O)OC(C)(C)C)P(=O)(O)O)[C@@H](O)[C@H]3O)c2n1` (stereo partly drawn) [Example 33, (2-(tert-butoxy)-1-(((2R,3S,4R,5R)-5-(2,6-dimethoxy-9H-purin-9-yl)-3,4-dihydroxytetrahydrofuran-2-yl)methoxy)-2-oxoethyl)phosphonic Acid], the half-inhibitory concentration (IC50) (on human CD73; in experiment [1]) was 100 to 1000 nM in each case.
On to `COc1nc(OC)c2ncn([C@@H]3O[C@H](COC(C(=O)O)P(=O)(O)O)[C@@H](O)[C@H]3O)c2n1` (stereo partly drawn) [Example 33a, 2-(((2R,3S,4R,5R)-5-(2,6-dimethoxy-9H-purin-9-yl)-3,4-dihydroxytetrahydrofuran-2-yl)methoxy)-2-phosphonoacetic acid], for which the IC50 is 100 to 1000 nM at human CD73 and greater than 1000 nM in experiment [1].
As to `Cc1nc(C)c2ncn([C@@H]3O[C@H](COC(C(=O)O)P(=O)(O)O)[C@@H](O)[C@H]3O)c2n1` (stereo partly drawn) [Example 38, 2-(((2R,3S,4R,5R)-5-(2,6-dimethyl-9H-purin-9-yl)-3,4-dihydroxytetrahydrofuran-2-yl)methoxy)-2-phosphonoacetic acid], the values for the IC50 (at human CD73; in experiment [1]) were 100 to 1000 nM and greater than 1000 nM, respectively.
On to `CCOC(=O)C(OC[C@H]1O[C@@H](n2cnc3c(N)nc(SC)nc32)[C@H](O)[C@@H]1O)P(=O)(O)O` (stereo partly drawn) [Example 43, (1-(((2R,3S,4R,5R)-5-(6-amino-2-(methylthio)-9H-purin-9-yl)-3,4-dihydroxytetrahydrofuran-2-yl)methoxy)-2-ethoxy-2-oxoethyl)phosphonic Acid], for which the values for the IC50 (at human CD73; in experiment [1]) were 100 to 1000 nM and greater than 1000 nM, respectively.
